From the OligoGym collection
Several values for one entry are separate records, joined by “and”; a condition that tells them apart may be missing. Equal values may be shown once. After the bases stand the sugars from the 5' end (letter, count) and the backbone: PS all phosphorothioate, else s phosphorothioate and o phosphodiester by linkage. Methylation of C is not given here. e = 2'-O-(2-methoxyethyl) (MOE); k = constrained ethyl (cEt); d = 2'-deoxy (DNA)

Molecular target: SOD1
Conditions: ASO

Work on “CTACAGCTAGCAGGATA (sugars e2 k2 d8 k2 e3, PS)” yielded a target mRNA inhibition (HepG2, 0.1875 µM) of 40%, a target mRNA inhibition (HepG2, 0.75 µM) of 79% and a target mRNA inhibition (HepG2, 3 µM) of 89%. The target mRNA inhibition (HepG2, 4 µM) was 87% and the target mRNA inhibition (HepG2, 12 µM) was 94%.
“CTACATCCAAGGGAATG (sugars e3 k2 d7 k2 e3, PS)” showed a target mRNA inhibition (HepG2, 3 µM) of 40%.
Work on “CTCAGACTACATCCAAG (sugars e2 k2 d8 k2 e3, PS)” yielded a target mRNA inhibition (HepG2, 0.1875 µM) of 38%, a target mRNA inhibition (HepG2, 0.75 µM) of 65% and a target mRNA inhibition (HepG2, 3 µM) of 87%. For the same sequence, the target mRNA inhibition (HepG2, 4 µM) was 85% and 83% and the target mRNA inhibition (HepG2, 12 µM) was 90% and 96%.
Work on “CTCCAACATGCCTCTCT (sugars e3 k2 d7 k2 e3, PS)” yielded a target mRNA inhibition (HepG2, 3 µM) of 5%.
For “CTGACAAGTTTAATACC (sugars e2 k2 d8 k2 e3, PS)”, the target mRNA inhibition (HepG2, 5 µM) was 30%.
“CTGACAAGTTTAATACC (sugars e3 k2 d7 k2 e3, PS)” gave a target mRNA inhibition (HepG2, 3 µM) of 10%.
“CTGCAGGAGACTACGACGCA (sugars e5 d10 e5, PS)” was tested, and the target mRNA inhibition (HepG2, 4 µM) was 36%.
In the case of “CTGGATAGAGGATTAAA (sugars e3 k2 d7 k2 e3, PS)”, the target mRNA inhibition (HepG2, 3 µM) was 26%.
Work on “CTGGTCCATTACTTTCC (sugars e3 k2 d7 k2 e3, PS)” yielded a target mRNA inhibition (HepG2, 3 µM) of 11%.
Work on “CTGGTCCATTACTTTCCTTC (sugars e5 d10 e5, PS)” yielded a target mRNA inhibition (HepG2, 3 µM) of 50%.
With “CTGGTTCCGAGGACTGCAAC (sugars e5 d10 e5, PS)” the target mRNA inhibition (HepG2, 4 µM) was 51%.
Sequence “CTTCAATAGACACATCG (sugars e3 k2 d7 k2 e3, PS)” has a target mRNA inhibition (HepG2, 3 µM) of 9%.
In the case of “CTTCAGCACGCACACGGCCT (sugars e5 d10 e5, PS)”, the target mRNA inhibition (HepG2, 0.1875 µM) was 13%, the target mRNA inhibition (HepG2, 0.75 µM) was 23% and the target mRNA inhibition (HepG2, 3 µM) was 48%. For the same sequence, the target mRNA inhibition (HepG2, 4 µM) was 57% and the target mRNA inhibition (HepG2, 12 µM) was 77%.
“CTTCCAAGTGATCATAA (sugars e2 k2 d8 k2 e3, PS)” gave a target mRNA inhibition (HepG2, 5 µM) of 40%.
In the case of “CTTCTGCTCGAAATTGA (sugars e3 k2 d7 k2 e3, PS)”, the target mRNA inhibition (HepG2, 3 µM) was 13%.
For “CTTCTGCTCGAAATTGATGA (sugars e5 d10 e5, PS)”, the target mRNA inhibition (HepG2, 4 µM) was 11%.
“CTTTCCTTCTGCTCGAA (sugars e3 k2 d7 k2 e3, PS)” was tested, and the target mRNA inhibition (HepG2, 3 µM) was 0%.
Work on “CTTTGCCCAAGTCATCTGCT (sugars e5 d10 e5, PS)” yielded a target mRNA inhibition (HepG2, 4 µM) of 56% and a target mRNA inhibition (HepG2, 12 µM) of 86%.
“CTTTTTCATGGACCACCAGT (sugars e5 d10 e5, PS)” gave a target mRNA inhibition (HepG2, 5 µM) of 9%.
“GAATCCATGCAGGCCTT (sugars e3 k2 d7 k2 e3, PS)” was tested, and the target mRNA inhibition (HepG2, 3 µM) was 9%.
“GACAAGTTTAATACCCA (sugars e3 k2 d7 k2 e3, PS)” showed a target mRNA inhibition (HepG2, 3 µM) of 24%.
Sequence “GACGCAAACCAGCACCCCGT (sugars e5 d10 e5, PS)” has a target mRNA inhibition (HepG2, 4 µM) of 45%.
Sequence “GATAACAGATGAGTTAA (sugars e2 k2 d8 k2 e3, PS)” has a target mRNA inhibition (HepG2, 4 µM) of 41%.
Sequence “GATACATTTCTACAGC (sugars ekddddddddekekee, linkages s1 o1 s8 o3 s2)” has a target mRNA inhibition (A431, 0.12 µM) of 0%, a target mRNA inhibition (A431, 0.6 µM) of 0% and a target mRNA inhibition (A431, 3 µM) of 0%. The target mRNA inhibition (A431, 15 µM) was 18%, the target mRNA inhibition (HepG2, 0.222 µM) was 40% and the target mRNA inhibition (HepG2, 0.667 µM) was 60%. It also gave a target mRNA inhibition (HepG2, 2 µM) of 80% and a target mRNA inhibition (HepG2, 6 µM) of 93%.
Work on “GATACATTTCTACAGCT (sugars e2 k2 d9 k2 e2, PS)” yielded a target mRNA inhibition (HepG2, 0.1875 µM) of 0%, a target mRNA inhibition (HepG2, 0.75 µM) of 45% and a target mRNA inhibition (HepG2, 3 µM) of 75%. The target mRNA inhibition (HepG2, 4 µM) was 77% and the target mRNA inhibition (HepG2, 12 µM) was 97%.
“GATACATTTCTACAGCT (sugars e3 k2 d7 k2 e3, PS)” gave a target mRNA inhibition (HepG2, 3 µM) of 40%.
With “GATCCCAATTACACCAC (sugars e2 k2 d8 k2 e3, PS)” the target mRNA inhibition (HepG2, 4 µM) was 41%.
Sequence “GATTTAAGTCTGGCAAA (sugars e2 k2 d8 k2 e3, PS)” has a target mRNA inhibition (HepG2, 5 µM) of 19%.
In the case of “GCACTGGTACAGCCTGCTGT (sugars e5 d10 e5, PS)”, the target mRNA inhibition (HepG2, 5 µM) was 31% and 24%.
“GCCATACAGGGTTTTTA (sugars e2 k2 d8 k2 e3, PS)” gave a target mRNA inhibition (HepG2, 5 µM) of 13%.
With “GCCATACAGGGTTTTTA (sugars e2 k2 d9 k2 e2, PS)” the target mRNA inhibition (HepG2, 5 µM) was 26%.
In the case of “GCCGTCGCCCTTCAGCA (sugars e3 k2 d7 k2 e3, PS)”, the target mRNA inhibition (HepG2, 3 µM) was 33%.
With “GCCTCATAATAAGTGCC (sugars e2 k2 d8 k2 e3, PS)” the target mRNA inhibition (HepG2, 5 µM) was 41%.
“GCGACTACTTTATAGGC (sugars e3 k2 d7 k2 e3, PS)” was tested, and the target mRNA inhibition (HepG2, 3 µM) was 12%.
With “GCGGCCAATGATGCAATGGT (sugars e5 d10 e5, PS)” the target mRNA inhibition (HepG2, 5 µM) was 13%.
Work on “GCTAGCAGGATAACAGA (sugars e2 k2 d8 k2 e3, PS)” yielded a target mRNA inhibition (HepG2, 4 µM) of 19%.
Work on “GCTTCCCCACACCTTCACTG (sugars e5 d10 e5, PS)” yielded a target mRNA inhibition (HepG2, 3 µM) of 50%.
With “GCTTCCCCACACCTTCACTG (sugars e5 d10 e5, linkages s1 o3 s11 o3 s1)” the target mRNA inhibition (A431, 0.12 µM) was 0%, the target mRNA inhibition (A431, 0.6 µM) was 0% and the target mRNA inhibition (A431, 3 µM) was 11%. The target mRNA inhibition (A431, 15 µM) was 0%, the target mRNA inhibition (HepG2, 0.222 µM) was 14% and the target mRNA inhibition (HepG2, 0.667 µM) was 32%. It also gave a target mRNA inhibition (HepG2, 2 µM) of 79% and a target mRNA inhibition (HepG2, 6 µM) of 55%.
“GCTTGAATGACAAAGAA (sugars e2 k2 d8 k2 e3, PS)” gave a target mRNA inhibition (HepG2, 5 µM) of 24%.
For “GCTTTTTCATGGACCAC (sugars e3 k2 d7 k2 e3, PS)”, the target mRNA inhibition (HepG2, 3 µM) was 71%.
